How the values were obtained:
[1] = test system: adenosine receptors; conditions: cited from earlier work
[2] = molecular target: T1, A1 receptors (Rattus norvegicus, UniProt P30543); assay: Binding on receptors (printed A1) of rat striatal membranes, [3H]-CGS21680 + CPA; conditions: 5 nM [3H]-CGS21680, 50 nM CPA, 1 h, 25° C.
T1 construct: preparations of rat striatal membranes; from tissue; host or cells: rat striatal membranes
Method: (§1) Binding on the adenosine receptors.
The binding on […] receptors has been carried out according to the method described in FASEB J. 1989, 3, A1047 on preparations of rat striatal membranes by incubating 200 μg of membrane proteins for 1 h at 25° C. with the substance to be tested, 5 nM [^3 H]-CGS21680 and 50 nM CPA. The non-specific binding has been determined with 100 nM CPA.
(§2) The incubations were blocked by filtration by means of a cell-harvester and, after completion of the separation of the bound from the free, the radioactivity contents were evaluated by liquid scintillation. The concentration-inhibition curves were obtained by assaying the receptor displacement at at least ten different concentrations of the test substance (all the assays were carried out in triplicate). The tested substances were dissolved in dimethyl sulphoxide and diluted in 50 mM Tris.HCl buffer pH=7.4. The IC50 values have been determined by non-linear regression curves and transformed into Ki values according to the Cheng-Prusoff equation.

[3] = Tail suspension test; type: in vivo, Male albino CD 1 mice; conditions: half an hour before test
Method: Tail suspension test The test described by L. Steru, et al. in Psychopharmacology 1985, 85, 367, also widely used as an animal model for the screening of antidepressant activity has been carried out. Male albino CD 1 mice weighing 25-35 g were used. Half an hour before the test, the animal is administered the test compound by the i.p. route; the control animals are administered the vehicle. The mouse is suspended from a horizontal bar at about 40 cm from the support plane by means of an adhesive tape applied at the end of the tail and secured to a hook. […] As the reference substance the tricyclic antidepressant drug desipramine was used.

[4] = Forced swim test; type: in vivo, Male ablino CD 1 mice; conditions: 1 h before immersion
Method: Forced swim test The test described by R. D. Porsolt et al. in Arch.Int.Pharmacodyn.Ther. 1977, 229, 327, has been carried out which is widely used as an animal model for the study of the antidepressant activity of new drugs. Male ablino CD 1 mice weighing 25-35 g were used. One hour before immersion in water, the test compound is intraperitoneally (i.p.) administered to the animal; the vehicle is administered to the control animals. The duration of permanence in water is 6'; from the 2nd to the 6th minute the time is measured during which the animal remains motionless. […] As the reference substance the tricyclic antidepressant drug desipramine was used.

[5] = molecular target: T2, A1 receptors (Rattus norvegicus, UniProt P25099); assay: Binding on A1 receptors, rat brain synaptosomial membranes, [3H]-DPCPX; conditions: 0.3 nM [3H]-DPCPX, 1 h, 25° C., pH 7.4
T2 construct: preparations of synaptosomial membranes from rat brain; from tissue; host or cells: rat brain synaptosomal membranes
T2 sequence (P25099 1-326): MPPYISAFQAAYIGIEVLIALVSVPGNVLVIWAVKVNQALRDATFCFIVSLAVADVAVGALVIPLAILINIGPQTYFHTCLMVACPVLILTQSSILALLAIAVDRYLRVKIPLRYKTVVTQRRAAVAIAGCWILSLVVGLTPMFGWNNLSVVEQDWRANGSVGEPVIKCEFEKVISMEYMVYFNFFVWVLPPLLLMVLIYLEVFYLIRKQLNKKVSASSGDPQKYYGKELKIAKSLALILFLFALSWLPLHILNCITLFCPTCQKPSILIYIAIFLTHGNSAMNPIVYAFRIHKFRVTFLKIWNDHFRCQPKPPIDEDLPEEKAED
Method: as §1
The binding on A1 receptors has been carried out according to the method described in Naunyn-Schmied. Arch. Pharmacol. 1987, 336, 204 on preparations of synaptosomial membranes from rat brain by incubating 200 μg of membrane proteins for 1 h at 25° C. with the substance to be tested and 0.3 nM [^3 H]-DPCPX in 400 μl of 50 mM Tris.HCl pH=7.4. The non-specific binding has been determined with […].
as §2

T1 sequence (P30543 whole entry): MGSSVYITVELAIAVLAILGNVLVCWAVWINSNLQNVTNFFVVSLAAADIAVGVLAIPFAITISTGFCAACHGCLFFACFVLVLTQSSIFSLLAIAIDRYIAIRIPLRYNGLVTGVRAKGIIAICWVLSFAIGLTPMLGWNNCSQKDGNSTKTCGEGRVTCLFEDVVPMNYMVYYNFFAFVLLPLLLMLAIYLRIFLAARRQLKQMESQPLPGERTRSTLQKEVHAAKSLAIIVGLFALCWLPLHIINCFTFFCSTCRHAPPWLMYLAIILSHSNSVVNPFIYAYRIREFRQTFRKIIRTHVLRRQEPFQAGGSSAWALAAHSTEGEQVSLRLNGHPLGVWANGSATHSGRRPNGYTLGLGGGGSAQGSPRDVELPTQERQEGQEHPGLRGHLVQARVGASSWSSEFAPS

For Cn1c(=O)c2[nH]cnc2n(C)c1=O [theophylline, 1,3-dimethylxanthine], the “affinity to the adenosine receptors” value [1] is given as “low affinity”.

With Cc1cnc2c(NC3CCCC3)nc3ccccc3n12 [COMPOUND EX. 9, 4-cyclopentylamino-1-methyl imidazo [1,2-a]quinoxaline] the Ki [2] was 2500 nM, the “% variation immobility time vs. C.” value ([3]; 0.001 mg/kg i.p.) was -26.7% and the “% variation immobility time vs. C.” value ([3]; 0.01 mg/kg i.p.) was -41.1%. For the same molecule, the “% variation immobility time vs. C.” value ([3]; 0.1 mg/kg i.p.) was -64.3%, the “% variation immobility time vs. C.” value ([4]; 0.001 mg/kg i.p.) was -32.8% and the “% variation immobility time vs. C.” value ([4]; 0.01 mg/kg i.p.) was -45.3%. For the same molecule, the Ki [5] was 7.9 nM.

For Cn1c(=O)c2c(ncn2C)n(C)c1=O [caffeine, 1,3,7-trimethylxanthine], the “affinity to the adenosine receptors” value [1] is listed as “low affinity”.

In the case of Clc1ccc2nc(NC3CCCC3)c3nccn3c2c1 [COMPOUND EX. 18, 4-cyclopentylamino-8-chloroimidazo[1,2-a]quinoxaline], the “% variation immobility time vs. C.” value ([4]; 1 mg/kg i.p.) is reported as -42.3%, the “% variation immobility time vs. C.” value ([4]; 10 mg/kg i.p.) is reported as -52.8% and the Ki [5] is reported as 23.5 nM.

For Cc1cnc2c(N3CCCCC3)nc3ccccc3n12 [COMPOUND EX. 13, 1-methyl-4-piperidinylimidazo[1,2-a]quinoxaline], the “% variation immobility time vs. C.” value ([4]; 0.1 mg/kg i.p.) was -23.5% and the “% variation immobility time vs. C.” value ([4]; 1 mg/kg i.p.) was -70.7%.

With CNCCCN1c2ccccc2CCc2ccccc21 [DESIPRAMINE, reference compound] the “% variation immobility time vs. C.” value ([3]; 4 mg/kg i.p.) was -21.3%, the “% variation immobility time vs. C.” value ([3]; 16 mg/kg i.p.) was -62.4% and the “% variation immobility time vs. C.” value ([4]; 7.5 mg/kg i.p.) was -10.4%. The “% variation immobility time vs. C.” value ([4]; 30 mg/kg i.p.) was -41.4%.

In the case of Cc1cnc2c(N3CCN(C)CC3)nc3ccccc3n12 [COMPOUND EX. 16, 1-methyl-4(N'-methylpiperazinyl)imidazo[1,2-a]quinoxaline], the “% variation immobility time vs. C.” value ([4]; 0.1 mg/kg i.p.) is reported as -22.4% and the “% variation immobility time vs. C.” value ([4]; 1 mg/kg i.p.) is reported as -51.4%.

Molecule Clc1cc2nc(NC3CCCC3)c3nccn3c2cc1Cl [COMPOUND EX. 22, 4-cyclopentylamino-7,8-dichloroimidazo[1,2-a]quinoxaline] has a Ki [5] of 26.5 nM.

With Cc1cnc2c(NC3CCCCC3)nc3ccc(Cl)cc3n12 [COMPOUND EX. 21, 4-cyclohexylamino-8-chloro-1-methylimidazo[1,2-a]quinoxaline] the “% variation immobility time vs. C.” value ([4]; 0.001 mg/kg i.p.) was -33.0% and the “% variation immobility time vs. C.” value ([4]; 0.01 mg/kg i.p.) was -48.6%.

For CCC(CC)Nc1nc2ccccc2n2c(C)cnc12 [COMPOUND EX. 5, 4-(1-ethylpropylamino)-1-methylimidazo[1,2-a] quinoxaline], the Ki [5] was 54 nM.

Fc1ccc2nc(NC3CCCC3)c3nccn3c2c1 [COMPOUND EX. 25] gave a Ki [5] of 84 nM.

Source: US6124287A, “Imidazo[1,2-a]quinoxalin-4-amines active as adenosine antagonists, process for their preparation and pharmaceutical compositions thereof” (Biomedica Foscama Industria Chimicofarmaceutica S.p.A., priority 1995, dated 2000)
